Consider five compounds from US20070078434A1, “Indications For Local Transport of Anaesthetic Agents By Electrotransport Devices” (Vyteris, Inc., priority 2005, published 2007).

The conditions of data set [1]: iontophoresis in vitro across human skin; cited from earlier work.
Data set [2] concerns anesthetized guinea pigs. Kind of data set: In vivo delivery of radiolabeled drug into anesthetized guinea pigs.
In data set [3] the test system is subjects. Kind of data set: Study 16: Platform IIA under various treatment conditions. Format: in vivo, human. To be noted: patches containing lidocaine 10% with and without epinephrine.
Data set [4] has as its system anesthetized guinea pigs. Conditions: guinea pig, in vivo.
For data set [5] the following is noted: codelivered with 300 mg of lidocaine; cited from earlier work.

Structures can show the parent of a compound that is named as a salt. Where two headings read alike, the source gives them in different places.

In the case of `CCCN(CC)C(CC)C(=O)Nc1c(C)cccc1C` (stereo not shown) [etidocaine], in data set [1], the “cumulative delivery compared with lidocaine” value is recorded as “slightly greater delivery”.
For the compound `CCN(CC)CC(=O)Nc1c(C)cccc1C.Cl` [lidocaine, 2-(Diethylamino)-2′,6′-acetoxylidide mono hydrochloride, monohydrate], the “amount delivered per patch” value in data set [2] worked out at 467 µg.
Take `CNCC(O)c1ccc(O)c(O)c1` [epinephrine, 1,2 Beizenediol, 4-[1-hydroxy-2-(methylamino)ethyl]-,(R)—, [R—(R*,R*)]-2,3-dihydroxybutanedioate (1:1) (salt)]: the “effect of epinephrine on the anaesthetic effect of lidocaine” value in data set [3] is recorded as “significantly enhanced”. Besides, the “amount delivered per patch” value in data set [4] stood at 2.4 µg. The maximum recommended dose in data set [5] was 150 µg.
Take `CCCNC(C)C(=O)Nc1ccccc1C` (stereo not shown) [prilocaine]: in data set [1], the “cumulative delivery compared with lidocaine” value is “slightly greater delivery”.
On to `CCN(CC)CCOC(=O)c1ccc(N)cc1` [procaine], for which the “cumulative delivery compared with lidocaine” value in data set [1] is recorded as “slightly greater delivery”.
